Like-named read-outs stand apart in the source and are kept apart here.
Details: for ϕ (quantum yield): pH 7.4; for brighter than dimethylsilyl counterpart: vs 001 (for 002, 009) or vs 016 (for 017)
[1] = spirolactone dyes, table title says PBS, text (b560-b564) says maximal ε when ring-opened in EtOH/0.1% TFA
[2] = spirolactone dyes, ϕ in PBS × ε in EtOH/0.1% TFA

CN(C)c1ccc2c(c1)[Si@](C)(CCCCl)c1cc(N(C)C)ccc1[C@]21OC(=O)c2ccccc21 [Compound 037, (5s,10s)-5-(3-Chloropropyl)-3,7-bis(dimethylamino)-5-methyl-3′H,5H-spiro[dibenzo[b,e]siline-10,1′-isobenzofuran]-3′-one]
extinction coefficient (maximum) in EtOH/0.1% TFA (EtOH/0.1% TFA): ~200,000 M−1 cm−1
Em (nm) (PBS): 665 nm
Ex (nm) (PBS): 650 nm
ϕ (quantum yield) (PBS): 0.40
ε (M^−1 cm^−1) [1]: 200,000 M^−1 cm^−1
Brightness (ϕ × ε) [2]: 80,000
overall brightness (ϕ in PBS × ε in EtOH/0.1% TFA): ~80,000 M−1 cm−1

CCOC(=O)CSCCC[Si@]1(C)c2cc(N(C)C)ccc2[C@]2(OC(=O)c3ccccc32)c2ccc(N(C)C)cc21 [Compound 042, Ethyl 2-((3-((5s,10s)-3,7-bis(dimethylamino)-5-methyl-3′-oxo-3′H,5H-spiro[dibenzo[b,e]siline-10,1′-isobenzofuran]-5-yl)propyl)thio)acetate]
Em (nm) (PBS): 665 nm
Ex (nm) (PBS): 645 nm
ϕ (quantum yield) (PBS): 0.45
ε (M^−1 cm^−1) [1]: 145,800 M^−1 cm^−1

CCOC(=O)CSCCC[Si@]1(C)c2cc(N(C)C)ccc2[C@@]2(OC(=O)c3ccccc32)c2ccc(N(C)C)cc21 [Compound 043, Ethyl 2-((3-((5r,10r)-3,7-bis(dimethylamino)-5-methyl-3′-oxo-3′H,5H-spiro[dibenzo[b,e]siline-10,1′-isobenzofuran]-5-yl)propyl)thio)acetate]
Em (nm) (PBS): 665 nm
Ex (nm) (PBS): 646 nm
ϕ (quantum yield) (PBS): 0.45
ε (M^−1 cm^−1) [1]: 150,700 M^−1 cm^−1

Cc1ccccc1C1=C2C=CC(=[N+]3CCC3)C=C2[Si](C)(C)c2cc(N3CCC3)ccc21 [Compound 024, 1-(7-(Azetidin-l-yl)-5,5-dimethyl-10-(o-tolyl)dibenzo[b,e]silin-3(5H)-ylidene)azetidin-1-ium, reference compound]
Brightness (ϕ × ε) (PBS): 55,460
Em (nm) (PBS): 663 nm
Ex (nm) (PBS): 649 nm
ε (M^−1 cm^−1) (PBS): 118,000 M^−1 cm^−1
ϕ (quantum yield) (PBS): 0.47

C=C[Si]1(c2ccccc2)C2=CC(=[N+](C)C)C=CC2=C(c2ccccc2C)c2ccc(N(C)C)cc21 (stereo not drawn) [Compound 005, N-(7-(Dimethylamino)-5-phenyl-10-(o-tolyl)-5-vinyldibenzo[b,e]silin-3(5H)-ylidene)-N-methylmethanaminium]
Brightness (ϕ × ε) (PBS): 53,499
Em (nm) (PBS): 676 nm
Ex (nm) (PBS): 658 nm
ε (M^−1 cm^−1) (PBS): 150,700 M^−1 cm^−1
ϕ (quantum yield) (PBS): 0.36

CC[Si]1(CC)C2=CC(=[N+](C)C)C=CC2=C(c2ccccc2C)c2ccc(N(C)C)cc21 [Compound 002, N-(7-(Dimethylamino)-5,5-diethyl-10-(o-tolyl)dibenzo[b,e]silin-3(5H)-ylidene)-N-methylmethanaminium]
Brightness (ϕ × ε) (PBS): 58,540
Em (nm) (PBS): 664 nm
Ex (nm) (PBS): 648 nm
ε (M^−1 cm^−1) (PBS): 164,900 M^−1 cm^−1
ϕ (quantum yield) (PBS): 0.36
brighter than dimethylsilyl counterpart (PBS): 30%

CN(C)c1ccc2c(c1)[Si@](C)(CCCSCC(=O)O)c1cc(N(C)C)ccc1[C@]21OC(=O)c2ccccc21 [Compound 063, 2-((3-((5s,10s)-3,7-Bis(dimethylamino)-5-methyl-3′-oxo-3′H,5H-spiro[dibenzo[b,e]siline-10,1′-isobenzofuran]-5-yl)propyl)thio)acetic acid]
Em (nm) (PBS): 665 nm
Ex (nm) (PBS): 645 nm
ϕ (quantum yield) (PBS): 0.45
ε (M^−1 cm^−1) [1]: 180,600 M^−1 cm^−1

C=C[Si]1(C=C)c2cc3c(cc2C(c2ccccc2C)=c2cc4c(cc21)=[N+](C)CCC4)CCCN3C [Compound 017, 1,11-Dimethyl-6-(o-tolyl)-13,13-divinyl-2,3,4,8,9,10,11,13-octahydrosilino[3,2-g:5,6-g′]diquinolin-1-ium]
Brightness (ϕ × ε) (PBS): 75,104
Em (nm) (PBS): 702 nm
Ex (nm) (PBS): 683 nm
ε (M^−1 cm^−1) (PBS): 234,700 M^−1 cm^−1
ϕ (quantum yield) (PBS): 0.32
brighter than dimethylsilyl counterpart (PBS): 60%

Cc1ccccc1C1=C2C=CC(=[N+](C)C)C=C2[Si](C)(c2cccc(N(C)C)c2)c2cc(N(C)C)ccc21 (stereo not drawn) [Compound 008, N-(7-(Dimethylamino)-5-(3-(dimethylamino)phenyl)-5-methyl-10-(o-tolyl)dibenzo[b,e]silin-3(5H)-ylidene)-N-methylmethanaminium]
Brightness (ϕ × ε) (PBS): 3700
Em (nm) (PBS): 668 nm
Ex (nm) (PBS): 651 nm
ε (M^−1 cm^−1) (PBS): 154,200 M^−1 cm^−1
ϕ (quantum yield) (PBS): 0.02
quantum yield (pH 3 acetate buffer): 0.31

Cc1ccccc1C1=C2C=CC(=[N+](C)C)C=C2[Si](C)([C@H]2CC3C=CC2C3)c2cc(N(C)C)ccc21 (stereo partly drawn) [Compound 013, N-(5-((2S)-Bicyclo[2.2.1]hept-5-en-2-yl)-7-(dimethylamino)-5-methyl-10-(o-tolyl)dibenzo[b,e]silin-3(5H)-ylidene)-N-methylmethanaminium]
Brightness (ϕ × ε) (PBS): 60,800
Em (nm) (PBS): 666 nm
Ex (nm) (PBS): 649 nm
ε (M^−1 cm^−1) (PBS): 160,000 M^−1 cm^−1
ϕ (quantum yield) (PBS): 0.38

Cc1ccccc1C1=c2cc3c(cc2[Si](C)(CCCCl)c2cc4c(cc21)CCN4C)=[N+](C)CC3 (stereo not drawn) [Compound 023, 11-(3-Chloropropyl)-1,9,11-trimethyl-5-(o-tolyl)-2,3,7,8,9,11-hexahydrosilino[3,2-f:5,6-f]diindol-1-ium]
Brightness (ϕ × ε) (PBS): 21,947
Em (nm) (PBS): 717 nm
Ex (nm) (PBS): 693 nm
ε (M^−1 cm^−1) (PBS): 129,100 M^−1 cm^−1
ϕ (quantum yield) (PBS): 0.17

Cc1ccccc1C1=C2C=CC(=[N+](C)C)C=C2[Si](C)(CCC(F)(F)F)c2cc(N(C)C)ccc21 (stereo not drawn) [Compound 010, N-(7-(Dimethylamino)-5-methyl-10-(o-tolyl)-5-(3,3,3-trifluoropropyl)dibenzo[b,e]silin-3(5H)-ylidene)-N-methylmethanaminium]
Brightness (ϕ × ε) (PBS): 39,854
Em (nm) (PBS): 666 nm
Ex (nm) (PBS): 650 nm
ε (M^−1 cm^−1) (PBS): 112,900 M^−1 cm^−1
ϕ (quantum yield) (PBS): 0.35

CN(C)c1ccc2c(c1)[Si@](C)(CCCCl)c1cc(N(C)C)ccc1[C@@]21OC(=O)c2ccccc21 [Compound 038, (5r,10r)-5-(3-Chloropropyl)-3,7-bis(dimethylamino)-5-methyl-3′H,5H-spiro[dibenzo[b,e]siline-10,1′-isobenzofuran]-3′-one]
extinction coefficient (maximum) in EtOH/0.1% TFA (EtOH/0.1% TFA): ~200,000 M−1 cm−1
Em (nm) (PBS): 665 nm
Ex (nm) (PBS): 650 nm
ϕ (quantum yield) (PBS): 0.40
ε (M^−1 cm^−1) [1]: 200,000 M^−1 cm^−1
Brightness (ϕ × ε) [2]: 80,000
overall brightness (ϕ in PBS × ε in EtOH/0.1% TFA): ~80,000 M−1 cm−1

Cc1ccccc1C1=C2C=CC(=[N+](C)C)C=C2[Si](c2ccccc2)(c2ccccc2)c2cc(N(C)C)ccc21 [Compound 007, N-(7-(Dimethylamino)-5,5-diphenyl-10-(o-tolyl)dibenzo[b,e]silin-3(5H)-ylidene)-N-methylmethanaminium]
Brightness (ϕ × ε) (PBS): 41,952
Em (nm) (PBS): 677 nm
Ex (nm) (PBS): 663 nm
ε (M^−1 cm^−1) (PBS): 120,900 M^−1 cm^−1
ϕ (quantum yield) (PBS): 0.35
red-shift compared to dimethylsilyl counterpart (vs 001 (for 007) or vs 020 (for 021, 022), excitation and emission): approximately 15 nm

C=C[Si]1(C=C)C2=CC(=[N+](C)C)C=CC2=C(c2ccccc2C)c2ccc(N(C)C)cc21 [Compound 006, N-(7-(Dimethylamino)-10-(o-tolyl)-5,5-divinyldibenzo[b,e]silin-3(5H)-ylidene)-N-methylmethanaminium]
Brightness (ϕ × ε) (PBS): 56,671
Em (nm) (PBS): 672 nm
Ex (nm) (PBS): 657 nm
ε (M^−1 cm^−1) (PBS): 158,300 M^−1 cm^−1
ϕ (quantum yield) (PBS): 0.36

C=C[Si]1(C=C)c2cc3c(cc2C(c2ccccc2C)=c2cc4c(cc21)=[N+](C)CC4)CCN3C [Compound 021, 1,9-Dimethyl-5-(o-tolyl)-11,11-divinyl-2,3,7,8,9,11-hexahydrosilino[3,2-f:5,6-f]diindol-1-ium]
Brightness (ϕ × ε) (PBS): 17,693
Em (nm) (PBS): 728 nm
Ex (nm) (PBS): 702 nm
ε (M^−1 cm^−1) (PBS): 136,100 M^−1 cm^−1
ϕ (quantum yield) (PBS): 0.13

CN(C)c1ccc2c(c1)[Si@](C)(CCCN=[N+]=[N-])c1cc(N(C)C)ccc1[C@@]21OC(=O)c2ccccc21 [Compound 054, (5r,10r)-5-(3-Azidopropyl)-3,7-bis(dimethylamino)-5-methyl-3′H,5H-spiro[dibenzo[b,e]siline-10,1′-isobenzofuran]-3′-one]
Em (nm) (PBS): 665 nm
Ex (nm) (PBS): 645 nm
ϕ (quantum yield) (PBS): 0.44
ε (M^−1 cm^−1) [1]: 218,400 M^−1 cm^−1

Cc1ccccc1C1=C2C=CC(=[N+]3CCC3)C=C2[Si](C)(CCCCl)c2cc(N3CCC3)ccc21 (stereo not drawn) [Compound 027, 1-(7-(Azetidin-1-yl)-5-(3-chloropropyl)-5-methyl-10-(o-tolyl)dibenzo[b,e]silin-3(5H)-ylidene)azetidin-1-ium]
quantum yield (EtOH/0.1% TFA, mix of two isomers): 0.61
Brightness (ϕ × ε) (PBS): 81,683
Em (nm) (PBS): 668 nm
Ex (nm) (PBS): 651 nm
ε (M^−1 cm^−1) (PBS): 166,700 M^−1 cm^−1
ϕ (quantum yield) (PBS): 0.49
extinction coefficient (measured in PBS, mix of two isomers): ~4,000
emission (mix of two isomers): 670 nm
excitation wavelength (mix of two isomers): 653 nm

Cc1ccccc1C1=C2C=CC(=[N+](C)C)C=C2[Si](C)(c2ccccc2)c2cc(N(C)C)ccc21 (stereo not drawn) [Compound 004, N-(7-(Dimethylamino)-5-methyl-5-phenyl-10-(o-tolyl)dibenzo[b,e]silin-3(5H)-ylidene)-N-methylmethanaminium]
Brightness (ϕ × ε) (PBS): 34,203
Em (nm) (PBS): 670 nm
Ex (nm) (PBS): 657 nm
ε (M^−1 cm^−1) (PBS): 99,140 M^−1 cm^−1
ϕ (quantum yield) (PBS): 0.35

C=C[Si]1(C=C)C2=CC(=[N+]3CCC3)C=CC2=C(c2ccccc2C)c2ccc(N3CCC3)cc21 [Compound 026, 1-(7-(Azetidin-1-yl)-10-(o-tolyl)-5,5-divinyldibenzo[b,e]silin-3(5H)-ylidene)azetidin-1-ium]
Brightness (ϕ × ε) (PBS): 48,268
Em (nm) (PBS): 673 nm
Ex (nm) (PBS): 658 nm
ε (M^−1 cm^−1) (PBS): 109,700 M^−1 cm^−1
ϕ (quantum yield) (PBS): 0.44

— patent US20250003877A1, “Silyl Bridged Dyes” (priority 2021, published 2025)
